Consider 45 compounds from patent US20120157401A1, “METHODS FOR TREATING NEUROFIBROMATOSIS” (PTC Therapeutics, Inc., priority 2009, published 2012).

A value given as a limit tells only on which side of the number the result lay.

The EC50 is the concentration needed to bring the measured effect to its halfway point.

For the first experiment, the system named is hypoxia-inducible endogenous VEGF expression. In words: Hypoxia-inducible endogenous VEGF expression ELISA in HeLa cells, dose-response EC50 (Table 3). Conditions: HeLa cells, hypoxic conditions (1% O2), 24-48 hours, VEGF in conditioned media; read-out: ELISA EC50. It is filed as cell-based, human. The essentials: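 HeLa cells kept 24-48 h under hypoxia (1% O2, 5% CO2, nitrogen balance) with or without compound, e.g. seven concentrations; secreted VEGF in conditioned medium quantified by ELISA against a standard curve. Parallel Cell Titer Glo viability under identical conditions excludes cytotoxicity.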
(In general: In an ELISA, binding on a coated surface is turned into a signal by an enzyme label.)
For the compound `O=C(Oc1ccc(Cl)cc1)N1CCc2c([nH]c3ccc(Cl)cc23)C1c1ccc(S(=O)(=O)N2CCOCC2)cc1` (stereo not drawn) [Compound 450], the EC50 was in the range of 0.008 to 0.04 µM.

The same experiment, now with this note: Homo sapiens, HeLa, read-out: ELISA EC50 μM.
As for `O=C1NC2CSC(CCCCC(=O)OCCOc3ccc(C4c5[nH]c6ccc(Cl)cc6c5CCN4C(=O)Oc4ccc(Cl)cc4)cc3)C2N1` (stereo not drawn) [Compound 544], the EC50 is < 0.008 µM.

As for `O=C(Oc1ccccc1)N1CCc2c([nH]c3ccc(Cl)cc23)C1c1ccc(OCCCN2CCOCC2)cc1` (stereo not drawn) [Compound 1075], the EC50 was in the range of 0.008 to 0.04 µM.

In the case of `CN1CCN(CCCCOc2ccc(C3c4[nH]c5ccc(Cl)cc5c4CCN3C(=O)Oc3ccc(Cl)cc3)cc2)CC1` (stereo not drawn) [Compound 704], the EC50 lay within 0.04 to 0.2 µM.

Turning to `O=C(Oc1ccc(F)cc1)N1CCc2c([nH]c3ccc(Cl)cc23)C1c1ccc(OCC(O)CN2CCSCC2)cc1` (stereo not drawn) [Compound 925], the EC50 is < 0.008 µM.

As for `CNCC(O)COc1ccc(C2c3[nH]c4ccc(Cl)cc4c3CCN2C(=O)Oc2ccc(Cl)cc2)cc1` (stereo not drawn) [Compound 850], the EC50 is 0.04 to 0.2 µM.

Turning to `O=C(Oc1ccc(Cl)cc1)N1CCc2c([nH]c3ccc(Cl)cc23)C1c1ccc(OCCCCCCN2CCCC2)cc1` (stereo not drawn) [Compound 783], the concentration giving a half-maximal response (EC50) was < 0.008 µM.

In the case of `COc1ccc(OC(=O)N2CCc3c([nH]c4ccc(Cl)cc34)C2c2ccc(OCC3CCCN(C)C3)cc2)cc1` (stereo not drawn) [Compound 981], the EC50 is 0.04 to 0.2 µM.

Turning to `CC(=O)N1CCN(CC(O)COc2ccc(C3c4[nH]c5ccc(Cl)cc5c4CCN3C(=O)Oc3ccc(Cl)cc3)cc2)CC1` (stereo not drawn) [Compound 415], the EC50 is < 0.008 µM.

With `CN1CCN(CC(O)COc2ccc(C3c4[nH]c5ccc(Cl)cc5c4CCN3C(=O)Oc3ccc(Cl)cc3)cc2)CC1` (stereo not drawn) [Compound 970], the EC50 fell in the range of 0.008 to 0.04 µM.

On to `O=C(Oc1ccc(Cl)cc1)N1CCc2c([nH]c3ccc(Cl)cc23)C1c1ccc(OCCCN2CCOCC2)cc1` (stereo not drawn) [Compound 894], for which the EC50 was < 0.008 µM.

For `O=C(Oc1ccc(Cl)cc1)N1CCc2c([nH]c3ccc(Cl)cc23)C1c1ccc(OCCN2CCOCC2)cc1` (stereo not drawn) [Compound 331], the EC50 is > 1 µM.

Consider `O=C(Oc1ccc(Cl)cc1)N1CCc2c([nH]c3ccc(Cl)cc23)C1c1ccc(OCCCCCCN2CCOCC2)cc1` (stereo not drawn) [Compound 786], for which the EC50 is < 0.008 µM.

As for `O=C(Oc1ccc(Cl)cc1)N1CCc2c([nH]c3ccc(Cl)cc23)[C@@H]1c1ccc(OC2CCN(C[C@H](O)CO)CC2)cc1` [Compound 1704], the EC50 was in the range of 0.008 to 0.04 µM.

Staying with this experiment, now noted: Homo sapiens; HeLa cells, hypoxic conditions (1% O2), 24-48 hours, VEGF in conditioned media; read-out: ELISA EC50.
For the compound `COC(=O)c1ccc(C2c3[nH]c4ccc(Cl)cc4c3CCN2C(=O)Oc2ccc(F)cc2)cc1` (stereo not drawn) [Compound 395], the EC50 was < 0.008 µM.

On to `O=C(Oc1ccc(Cl)cc1)N1CCc2c([nH]c3ccc(Cl)cc23)[C@H]1c1ccc(OCCCn2ccnn2)cc1` [Compound 1069], for which the EC50 was < 0.008 µM.

With `Cc1ccc(C2c3[nH]c4ccc(Br)cc4c3CCN2C(=O)Oc2ccc(Cl)cc2)cc1` (stereo not drawn) [Compound 353], the EC50 is < 0.008 µM.

In the case of `COc1ccc(OC(=O)N2CCc3c([nH]c4ccc(Cl)cc34)C2c2ccc(OCCCn3nccn3)cc2)cc1` (stereo not drawn) [Compound 1134], the EC50 is < 0.008 µM.

`CC(CO)(CO)COc1ccc([C@H]2c3[nH]c4ccc(Cl)cc4c3CCN2C(=O)Oc2ccc(Cl)cc2)cc1` [Compound 1230]: the EC50 is < 0.008 µM.

For the compound `O=C(Oc1ccc(F)cc1)N1CCc2c([nH]c3ccc(Cl)cc23)C1c1ccc(OCC(O)Cn2nccn2)cc1` (stereo not drawn) [Compound 1067], the EC50 fell in the range of 0.008 to 0.04 µM.

Consider `O=C(Oc1ccc(Cl)cc1)N1CCc2c([nH]c3ccc(Cl)cc23)[C@@H]1c1ccc(OCCCn2nccn2)cc1` [Compound 1129], for which the EC50 is < 0.008 µM.

As to `COC(=O)c1ccc(C2c3[nH]c4ccc(Br)cc4c3CCN2C(=O)Oc2ccc(Cl)cc2)cc1` (stereo not drawn) [Compound 591], the EC50 is < 0.008 µM.

On to `COc1cc(C2c3[nH]c4ccc(Cl)cc4c3CCN2C(=O)Oc2ccccc2)ccc1OCCCn1ccnn1` (stereo not drawn) [Compound 1144], for which the EC50 fell in the range of 0.04 to 0.2 µM.

Regarding `COCCOc1ccc(C2c3[nH]c4ccc(Cl)cc4c3CCN2C(=O)Oc2ccc(OC)cc2)cc1` (stereo not drawn) [Compound 465], the EC50 was in the range of 0.008 to 0.04 µM.

Regarding `O=C(Oc1ccc(F)cc1)N1CCc2c([nH]c3ccc(Cl)cc23)C1c1ccc(OCC2CO2)cc1` (stereo not drawn) [Compound 967], the 50% effective concentration (EC50) was 0.008 to 0.04 µM.

As for `Cc1ccc(OC(=O)N2CCc3c([nH]c4ccc(Cl)cc34)C2c2ccc(OCC[C@H](O)CO)cc2)cc1` (stereo partly drawn) [Compound 1180], the EC50 was < 0.008 µM.

As to `O=C(Oc1ccc(Cl)cc1)N1CCc2c([nH]c3ccc(Cl)cc23)C1c1ccc(OCC(O)Cn2ccnc2)cc1` (stereo not drawn) [Compound 867], the EC50 was 0.008 to 0.04 µM.

In the case of `COc1ccc(C2c3[nH]c4ccc(Br)cc4c3CCN2C(=O)Oc2ccc(Cl)cc2)cc1` (stereo not drawn) [Compound 355], the EC50 is < 0.008 µM.

Regarding `Cc1ccc(C2c3[nH]c4ccc(Cl)cc4c3CCN2C(=O)Oc2ccc(Cl)cc2)cc1` (stereo not drawn) [Compound 347], the EC50 was < 0.008 µM.

For `O=C(Oc1ccc(Cl)cc1)N1CCc2c([nH]c3ccc(Cl)cc23)C1c1ccc(OCCCCCl)cc1` (stereo not drawn) [Compound 660], the EC50 was < 0.008 µM.

As to `O=C(Oc1ccc(F)cc1)N1CCc2c([nH]c3ccc(Cl)cc23)C1c1ccc(F)cc1` (stereo not drawn) [Compound 452], the EC50 fell in the range of 0.008 to 0.04 µM.

In the case of `NC(=O)COc1ccc(C2c3[nH]c4ccc(Cl)cc4c3CCN2C(=O)Oc2ccccc2Cl)cc1` (stereo not drawn) [Compound 1213], the EC50 lay in the range of 0.04 to 0.2 µM.

For `Cc1ccc2[nH]c3c(c2c1)CCN(C(=O)Oc1ccc(Cl)cc1)C3c1ccc(C(C)C)cc1` (stereo not drawn) [Compound 344], the EC50 was 0.008 to 0.04 µM.

As to `O=C(Oc1ccc(Cl)cc1)N1CCc2c([nH]c3ccc(Cl)cc23)C1c1ccc(OCCCCn2cncn2)cc1` (stereo not drawn) [Compound 706], the EC50 was < 0.008 µM.

As to `COC(=O)c1ccc(C2c3[nH]c4ccc(Br)cc4c3CCN2C(=O)Oc2ccc(F)cc2)cc1` (stereo not drawn) [Compound 592], the EC50 is < 0.008 µM.

As for `COc1ccc(OC(=O)N2CCc3c([nH]c4ccc(Cl)cc34)C2c2ccc(OCC3OCCO3)cc2)cc1` (stereo not drawn) [Compound 1055], the EC50 was 0.008 to 0.04 µM.

As for `COc1ccc(OC(=O)N2CCc3c([nH]c4ccc(Cl)cc34)C2c2ccc(OCCCn3cncn3)c(OC)c2)cc1` (stereo not drawn) [Compound 1151], the EC50 is 0.04 to 0.2 µM.

For the compound `COCCOc1ccc(C2c3[nH]c4ccc(Cl)cc4c3CCN2C(=O)Oc2ccccc2)cc1` (stereo not drawn) [Compound 436], the EC50 was < 0.008 µM.

In the case of `O=C(Oc1ccc(Cl)cc1)N1CCc2c([nH]c3ccc(Cl)cc23)[C@@H]1c1ccc(OCCC(O)Cn2ccnn2)cc1` (stereo partly drawn) [Compound 1281], the EC50 was < 0.008 µM.

The experiment is the same for the next values; noted with them: Homo sapiens; HeLa cells, hypoxic conditions (1% O2), VEGF ELISA of conditioned media; read-out: ELISA EC50.
Consider `Cc1ccc(OC(=O)N2CCc3c([nH]c4ccc(Cl)cc34)[C@@H]2c2ccc(OCCC(O)CNC(=O)c3ccccn3)cc2)cc1` (stereo partly drawn) [Compound 1641], for which the EC50 was < 0.008 µM.

Take `Cc1cnc(C)c(Oc2ccc([C@H]3c4[nH]c5ccc(Cl)cc5c4CCN3C(=O)Oc3ccc(Cl)cc3)cc2)n1` [Compound 1658]: the EC50 is < 0.008 µM.

For the compound `O=C(NCC(O)COc1ccc(C2c3[nH]c4ccc(Cl)cc4c3CCN2C(=O)Oc2ccc(Cl)cc2)cc1)c1cccnc1` (stereo not drawn) [Compound 1561], the EC50 lay within 0.008 to 0.04 µM.

For `COC(=O)NCC(O)CCOc1ccc([C@H]2c3[nH]c4ccc(Cl)cc4c3CCN2C(=O)Oc2ccc(Cl)cc2)cc1` (stereo partly drawn) [Compound 1635], the EC50 is < 0.008 µM.

In the case of `CCC(=O)NCC(O)COc1ccc(C2c3[nH]c4ccc(Cl)cc4c3CCN2C(=O)Oc2ccc(Cl)cc2)cc1` (stereo not drawn) [Compound 1558], the 50% effective concentration (EC50) lay in the range of 0.008 to 0.04 µM.

For the compound `O=C(Oc1ccc(F)cc1)N1CCc2c([nH]c3ccc(Cl)cc23)C1c1ccc(OCCNc2ncncn2)cc1` (stereo not drawn) [Compound 1440], the EC50 is < 0.008 µM.
